According to PubChem BioAssay (NCI):
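Five concentrations, 48 hours, 96-well plates. GI50 = concentration required for 50% inhibition of growth. TGI is the concentration that stops growth completely.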

Columns and labels:
Test in all cases: DTP human tumour cell line panel, 48 h
HL-60(TB) leukemia = system: HL-60(TB) leukemia
ACHN renal = system: ACHN renal
RXF 393 renal = system: RXF 393 renal
MCF7 breast = system: MCF7 breast
HT29 colon = system: HT29 colon
A498 renal = system: A498 renal
SNB-19 CNS = system: SNB-19 CNS
SK-MEL-28 melanoma = system: SK-MEL-28 melanoma
TK-10 renal = system: TK-10 renal
SNB-75 CNS = system: SNB-75 CNS
NCI-H522 lung = system: NCI-H522 lung
SW-620 colon = system: SW-620 colon
DU-145 prostate = system: DU-145 prostate
NCI-H226 lung = system: NCI-H226 lung
SF-268 CNS = system: SF-268 CNS
HS 578T breast = system: HS 578T breast
OVCAR-8 ovarian = system: OVCAR-8 ovarian
HCC-2998 colon = system: HCC-2998 colon
CAKI-1 renal = system: CAKI-1 renal
SN12C renal = system: SN12C renal
SK-MEL-5 melanoma = system: SK-MEL-5 melanoma
PC-3 prostate = system: PC-3 prostate
OVCAR-5 ovarian = system: OVCAR-5 ovarian
NCI-H23 lung = system: NCI-H23 lung
SK-MEL-2 melanoma = system: SK-MEL-2 melanoma
NCI-H460 lung = system: NCI-H460 lung
SF-539 CNS = system: SF-539 CNS
MDA-MB-231 breast = system: MDA-MB-231 breast
786-0 renal = system: 786-0 renal
SK-OV-3 ovarian = system: SK-OV-3 ovarian
SR leukemia = system: SR leukemia
UACC-257 melanoma = system: UACC-257 melanoma
MALME-3M melanoma = system: MALME-3M melanoma
CCRF-CEM leukemia = system: CCRF-CEM leukemia
HOP-62 NSCLC = system: HOP-62 NSCLC
T-47D breast = system: T-47D breast
M14 melanoma = system: M14 melanoma
MDA-MB-435 = system: MDA-MB-435
NCI/ADR-RES ovarian = system: NCI/ADR-RES ovarian
LOX IMVI melanoma = system: LOX IMVI melanoma
HOP-92 NSCLC = system: HOP-92 NSCLC
UO-31 renal = system: UO-31 renal
HCT-15 colon = system: HCT-15 colon
A549 NSCLC = system: A549 NSCLC
OVCAR-4 ovarian = system: OVCAR-4 ovarian
BT-549 breast = system: BT-549 breast
UACC-62 melanoma = system: UACC-62 melanoma
SF-295 CNS = system: SF-295 CNS
OVCAR-3 ovarian = system: OVCAR-3 ovarian
COLO 205 colon = system: COLO 205 colon
U251 CNS = system: U251 CNS
K-562 leukemia = system: K-562 leukemia
HCT-116 colon = system: HCT-116 colon
EKVX NSCLC = system: EKVX NSCLC
KM12 colon = system: KM12 colon
IGROV1 ovarian = system: IGROV1 ovarian
RPMI-8226 leukemia = system: RPMI-8226 leukemia
MOLT-4 leukemia = system: MOLT-4 leukemia

O=C(c1cc(-c2cc3c(cc2C(=O)N2Cc4ccccc4C[C@H]2CN2CCOCC2)OCO3)n2c1CCCC2)N(c1ccccc1)c1ccc(O)cc1 was tested, and the GI50 (HL-60(TB) leukemia) was 2620 nM, the TGI (HL-60(TB) leukemia) was 7.16 µM and the GI50 (ACHN renal) was 9.36 µM. The TGI (ACHN renal) was over 100 µM, the GI50 (RXF 393 renal) was 2770 nM and the TGI (RXF 393 renal) was 17.5 µM. The GI50 (MCF7 breast) was 3.52 µM, the TGI (MCF7 breast) was over 100 µM and the GI50 (HT29 colon) was 5.14 µM. The TGI (HT29 colon) was over 100 µM, the GI50 (A498 renal) was 2710 nM and the TGI (A498 renal) was 15.3 µM. It also gave a GI50 (SNB-19 CNS) of 7.13 µM, a TGI (SNB-19 CNS) of over 100 µM and a GI50 (SK-MEL-28 melanoma) of 11.4 µM. It also gave a TGI (SK-MEL-28 melanoma) of over 100 µM, a GI50 (TK-10 renal) of 27.8 µM and a TGI (TK-10 renal) of over 100 µM. The GI50 (SNB-75 CNS) was 3.61 µM, the TGI (SNB-75 CNS) was over 100 µM and the GI50 (NCI-H522 lung) was 22.9 µM. For the same molecule, the TGI (NCI-H522 lung) was over 100 µM, the GI50 (SW-620 colon) was 17.3 µM and the TGI (SW-620 colon) was over 100 µM. For the same molecule, the GI50 (DU-145 prostate) was 18 µM, the TGI (DU-145 prostate) was over 100 µM and the GI50 (NCI-H226 lung) was 10.1 µM. The TGI (NCI-H226 lung) was 56 µM, the GI50 (SF-268 CNS) was 7.65 µM and the TGI (SF-268 CNS) was over 100 µM. It also gave a GI50 (HS 578T breast) of 6.05 µM, a TGI (HS 578T breast) of over 100 µM and a GI50 (OVCAR-8 ovarian) of 10.6 µM. It also gave a TGI (OVCAR-8 ovarian) of over 100 µM, a GI50 (HCC-2998 colon) of 4.93 µM and a TGI (HCC-2998 colon) of 61.3 µM. The GI50 (CAKI-1 renal) was 3.56 µM, the TGI (CAKI-1 renal) was over 100 µM and the GI50 (SN12C renal) was 8.6 µM. The TGI (SN12C renal) was over 100 µM, the GI50 (SK-MEL-5 melanoma) was 3.78 µM and the TGI (SK-MEL-5 melanoma) was 18.6 µM. For the same molecule, the GI50 (PC-3 prostate) was 2990 nM, the TGI (PC-3 prostate) was over 100 µM and the GI50 (OVCAR-5 ovarian) was 5.87 µM. The TGI (OVCAR-5 ovarian) was over 100 µM, the GI50 (NCI-H23 lung) was 34.8 µM and the TGI (NCI-H23 lung) was over 100 µM. It also gave a GI50 (SK-MEL-2 melanoma) of 10.2 µM, a TGI (SK-MEL-2 melanoma) of 54.4 µM and a GI50 (NCI-H460 lung) of 7.09 µM. It also gave a TGI (NCI-H460 lung) of over 100 µM, a GI50 (SF-539 CNS) of 15.7 µM and a TGI (SF-539 CNS) of over 100 µM. The GI50 (MDA-MB-231 breast) was 10.9 µM, the TGI (MDA-MB-231 breast) was 53.3 µM and the GI50 (786-0 renal) was 45.9 µM. It also gave a TGI (786-0 renal) of over 100 µM, a GI50 (SK-OV-3 ovarian) of 12.7 µM and a TGI (SK-OV-3 ovarian) of over 100 µM. For the same molecule, the GI50 (SR leukemia) was 3.09 µM, the TGI (SR leukemia) was over 100 µM and the GI50 (UACC-257 melanoma) was 18.9 µM. It also gave a TGI (UACC-257 melanoma) of over 100 µM, a GI50 (MALME-3M melanoma) of 15.6 µM and a TGI (MALME-3M melanoma) of over 100 µM. It also gave a GI50 (CCRF-CEM leukemia) of 3.34 µM, a TGI (CCRF-CEM leukemia) of over 100 µM and a GI50 (HOP-62 NSCLC) of 64.4 µM. It also gave a TGI (HOP-62 NSCLC) of over 100 µM, a GI50 (T-47D breast) of 4.95 µM and a TGI (T-47D breast) of over 100 µM. The GI50 (M14 melanoma) was 18.1 µM, the TGI (M14 melanoma) was over 100 µM and the GI50 (MDA-MB-435) was 8.55 µM. It also gave a TGI (MDA-MB-435) of 98.9 µM, a GI50 (NCI/ADR-RES ovarian) of 6.5 µM and a TGI (NCI/ADR-RES ovarian) of over 100 µM. The GI50 (LOX IMVI melanoma) was 7.09 µM, the TGI (LOX IMVI melanoma) was over 100 µM and the GI50 (HOP-92 NSCLC) was 2720 nM. It also gave a TGI (HOP-92 NSCLC) of 15 µM, a GI50 (UO-31 renal) of 4.28 µM and a TGI (UO-31 renal) of over 100 µM. The GI50 (HCT-15 colon) was 3.54 µM, the TGI (HCT-15 colon) was over 100 µM and the GI50 (A549 NSCLC) was 5.15 µM. For the same molecule, the TGI (A549 NSCLC) was over 100 µM, the GI50 (OVCAR-4 ovarian) was 8.35 µM and the TGI (OVCAR-4 ovarian) was over 100 µM. It also gave a GI50 (BT-549 breast) of 36.4 µM, a TGI (BT-549 breast) of over 100 µM and a GI50 (UACC-62 melanoma) of 8.62 µM. It also gave a TGI (UACC-62 melanoma) of over 100 µM, a GI50 (SF-295 CNS) of 5.14 µM and a TGI (SF-295 CNS) of over 100 µM. For the same molecule, the GI50 (OVCAR-3 ovarian) was 5.55 µM, the TGI (OVCAR-3 ovarian) was over 100 µM and the GI50 (COLO 205 colon) was 6.71 µM. It also gave a TGI (COLO 205 colon) of over 100 µM, a GI50 (U251 CNS) of 6.99 µM and a TGI (U251 CNS) of over 100 µM. It also gave a GI50 (K-562 leukemia) of 3.88 µM, a TGI (K-562 leukemia) of over 100 µM and a GI50 (HCT-116 colon) of 13.6 µM. For the same molecule, the TGI (HCT-116 colon) was over 100 µM, the GI50 (EKVX NSCLC) was 5.31 µM and the TGI (EKVX NSCLC) was over 100 µM. The GI50 (KM12 colon) was 12.9 µM, the TGI (KM12 colon) was over 100 µM and the GI50 (IGROV1 ovarian) was 5.97 µM. For the same molecule, the TGI (IGROV1 ovarian) was over 100 µM.

For O=[N+]([O-])C(=C/C1CCCCC1)/C(=C\C1CCCCC1)[N+](=O)[O-], the TGI (ACHN renal) was 10.7 µM, the TGI (RXF 393 renal) was 3.93 µM and the TGI (MCF7 breast) was 26.4 µM. For the same molecule, the TGI (HT29 colon) was 28.8 µM, the TGI (A498 renal) was 30 µM and the TGI (SNB-19 CNS) was 35.7 µM. It also gave a TGI (SK-MEL-28 melanoma) of 24.7 µM, a TGI (TK-10 renal) of 16.8 µM and a TGI (SNB-75 CNS) of 31.3 µM. It also gave a TGI (NCI-H522 lung) of 4.3 µM, a TGI (SW-620 colon) of 17.4 µM and a TGI (DU-145 prostate) of 26.7 µM. It also gave a TGI (NCI-H226 lung) of 17.9 µM, a TGI (SF-268 CNS) of 14.7 µM and a TGI (HS 578T breast) of 18.4 µM. The TGI (OVCAR-8 ovarian) was over 27.3 µM, the TGI (HCC-2998 colon) was 36.4 µM and the TGI (CAKI-1 renal) was 11.1 µM. The TGI (RPMI-8226 leukemia) was 5.4 µM, the TGI (SN12C renal) was 11.5 µM and the TGI (SK-MEL-5 melanoma) was 23.1 µM. The TGI (PC-3 prostate) was 34.4 µM, the TGI (OVCAR-5 ovarian) was 38.8 µM and the TGI (NCI-H23 lung) was 10.1 µM. The TGI (MOLT-4 leukemia) was over 26.1 µM, the TGI (SK-MEL-2 melanoma) was 37.8 µM and the TGI (NCI-H460 lung) was 12.5 µM. The TGI (SF-539 CNS) was 9.4 µM, the TGI (MDA-MB-231 breast) was 8.98 µM and the TGI (786-0 renal) was 4.11 µM. It also gave a TGI (SK-OV-3 ovarian) of 42.7 µM, a TGI (SR leukemia) of 6.89 µM and a TGI (UACC-257 melanoma) of 23.5 µM. It also gave a TGI (MALME-3M melanoma) of 6.69 µM, a TGI (CCRF-CEM leukemia) of 17.7 µM and a TGI (HOP-62 NSCLC) of 19.1 µM. For the same molecule, the TGI (T-47D breast) was 38 µM, the TGI (M14 melanoma) was 22.3 µM and the TGI (MDA-MB-435) was 20.4 µM. It also gave a TGI (NCI/ADR-RES ovarian) of 7.29 µM, a TGI (LOX IMVI melanoma) of 4.94 µM and a TGI (HOP-92 NSCLC) of 20.2 µM. It also gave a TGI (UO-31 renal) of 22.4 µM, a TGI (HCT-15 colon) of 3.76 µM and a TGI (A549 NSCLC) of 49 µM. For the same molecule, the TGI (OVCAR-4 ovarian) was 40.1 µM, the TGI (BT-549 breast) was 12.5 µM and the TGI (UACC-62 melanoma) was 17.6 µM. The TGI (SF-295 CNS) was 32.8 µM, the TGI (OVCAR-3 ovarian) was 31.6 µM and the TGI (COLO 205 colon) was 9.29 µM. It also gave a TGI (U251 CNS) of 14.7 µM, a TGI (K-562 leukemia) of over 82 µM and a TGI (HCT-116 colon) of 17.7 µM. It also gave a TGI (EKVX NSCLC) of 24.9 µM, a TGI (KM12 colon) of 29.8 µM and a TGI (IGROV1 ovarian) of 20.6 µM.
